Source: patent publication US12685312B2, “Sulfonamide apyrase inhibitors” (Texas Crop Science, Inc., priority 2022, dated 2026)

System: apyrase
Test: Screen for apyrase inhibitors (Method 1, in vitro phosphate-release absorbance assay)
Type: biochemical
Details: inhibitor conc at 1 mM stock, 1 hr room temperature, absorbance 630 nm; rounded average of two assay results
Procedure: Apyrase inhibitors useful as enhancers of pesticidal activity are assessed using an in vitro assay. The method of Windsor, Bio Techniques 33:1024-1030 (November 2002) was used as follows Screen for Apyrase Inhibitors- 96 well plates were used for the assay: (Greiner bio-one: REF-655901-96 well, PS, F-bottom, Clear, Non-binding) Buffers: • Reaction Buffer: 60 mM Hepes; 3 mM MgCl2, 3 mM CaCl2 and 3 mM ATP (pH 6.5) • Development Buffer A: 2% aqueous ammonium molybdate • Development Buffer B: 11% ascorbic acid in 37.5% TCA in water • Stop buffer C: 2% trisodium citrate in 2% acetic acid solution in water • Add 100 μl of reaction buffer to each well. • Add 10 μl of DMSO (control) or inhibitor/compound or compounds such as […] or orthovanadate to each well. […] A blank cell indicates either <10% observed inhibition or a large difference between repetitions. In certain examples, the lack of observed inhibition is due to a lack of solubility of the compound under assay conditions, rather than a lack of apyrase inhibitory activity.

Row | SMILES | % Inhibition of Apyrase [%]
1 | O=C(Nc1ccc(SC(F)F)cc1)c1ccc(NS(=O)(=O)c2cccc([N+](=O)[O-])c2)cc1 [I-901, N-(4-((difluoromethyl)thio)phenyl)-4-((3-nitrophenyl)sulfonamido)benzamide] | 64
2 | Cc1nc2ccc(NC(=O)c3cccc(S(=O)(=O)N4CCc5ccccc54)c3)cc2s1 [I-592, 3-(indolin-1-ylsulfonyl)-N-(2-methylbenzo[d]thiazol-6-yl)benzamide] | 41
3 | COc1ccccc1NS(=O)(=O)c1ccc(C(=O)Nc2ccc3c(c2)OCO3)cc1 [I-409, N-(benzo[d][1,3]dioxol-5-yl)-4-(N-(2-methoxyphenyl)sulfamoyl)benzamide] | 30
4 | Cc1ccc(N(C)S(=O)(=O)c2cccc(C(=O)Nc3ccc4c(c3)CCC4)c2)cc1 [I-504, N-(2,3-dihydro-1H-inden-5-yl)-3-(N-methyl-N-(p-tolyl)sulfamoyl)benzamide] | 57
5 | O=C(c1cccc(S(=O)(=O)Nc2ccc(OCc3ccccc3)cc2)c1)N1CCc2ccccc21 [I-521, N-(4-(benzyloxy)phenyl)-3-(indoline-1-carbonyl)benzenesulfonamide] | 56
6 | CN(c1ccccc1)S(=O)(=O)c1cccc(NC(=O)c2nn(C)c(=O)c3ccccc23)c1 [I-763, 3-methyl-N-(3-(N-methyl-N-phenylsulfamoyl)phenyl)-4-oxo-3,4-dihydrophthalazine-1-carboxamide] | 15
7 | O=C1CCCN1c1ccccc1NS(=O)(=O)c1ccc(Br)cc1 [I-842, 4-bromo-N-(2-(2-oxopyrrolidin-1-yl)phenyl)benzenesulfonamide] | 5
8 | COc1ccccc1N(C)S(=O)(=O)c1ccc(C(=O)N2CCCc3ccccc32)cc1 [I-877, N-(2-methoxyphenyl)-N-methyl-4-(1,2,3,4-tetrahydroquinoline-1-carbonyl)benzenesulfonamide] | 54
9 | COc1cccc(S(=O)(=O)Nc2ccc(C(=O)Nc3ccc4c(c3)OCCO4)cc2)c1 [I-903, N-(2,3-dihydrobenzo[b][1,4]dioxin-6-yl)-4-((3-methoxyphenyl)sulfonamido)benzamide] | 62
10 | COc1ccc(S(=O)(=O)N2CCc3ccccc32)cc1C(=O)Nc1ccc(C(F)(F)F)cc1 [I-505, 5-(indolin-1-ylsulfonyl)-2-methoxy-N-(4-(trifluoromethyl)phenyl)benzamide] | 57
11 | O=C(NCc1ccco1)c1cccc(S(=O)(=O)Nc2ccc(Br)cc2)c1 [I-48, 3-(N-(4-bromophenyl)sulfamoyl)-N-(furan-2-ylmethyl)benzamide] | 11
12 | O=C(c1cccc(S(=O)(=O)Nc2ccc(Br)cc2)c1)N1CCc2ccccc21 [I-13, N-(4-bromophenyl)-3-(indoline-1-carbonyl)benzenesulfonamide] | 59
13 | O=C(Nc1cccc(S(=O)(=O)Nc2ccc(Br)cc2)c1)c1ccsc1 [I-207, N-(3-(N-(4-bromophenyl)sulfamoyl)phenyl)thiophene-3-carboxamide] | 74
14 | Cc1ccnc(NC(=O)c2cccc(NS(=O)(=O)c3ccc(C)c(F)c3)c2)c1 [I-651, 3-((3-fluoro-4-methylphenyl)sulfonamido)-N-(4-methylpyridin-2-yl)benzamide] | 50
15 | O=C(Nc1ccc(F)c([N+](=O)[O-])c1)c1ccc(S(=O)(=O)Nc2ccc(Cl)cc2)cc1 [I-203, 4-(N-(4-chlorophenyl)sulfamoyl)-N-(4-fluoro-3-nitrophenyl)benzamide] | 72
16 | COc1ccc(NS(=O)(=O)c2cccc(C(=O)Nc3cnc4[nH]nc(C)c4c3)c2)cc1 [I-606, 3-(N-(4-methoxyphenyl)sulfamoyl)-N-(3-methyl-1H-pyrazolo[3,4-b]pyridin-5-yl)benzamide] | 16
17 | CCOc1ccc(NC(=O)c2ccc(NS(=O)(=O)c3cccc(C(F)(F)F)c3)cc2)cc1 [I-900, N-(4-ethoxyphenyl)-4-((3-(trifluoromethyl)phenyl)sulfonamido) benzamide] | 65
18 | COc1ccc(NS(=O)(=O)c2ccc(NC(=O)c3ccc(F)cc3)cc2)cc1 [I-1002, 4-fluoro-N-(4-(N-(4-methoxyphenyl)sulfamoyl)phenyl)benzamide] | 3
19 | O=C(Nc1cc(F)ccc1F)c1cccc(S(=O)(=O)N2CCc3ccccc32)c1 [I-488, N-(2,5-difluorophenyl)-3-(indolin-1-ylsulfonyl)benzamide] | 58
20 | CN(c1ccccc1)S(=O)(=O)c1cccc(NC(=O)c2cc(Cl)nc3ccccc23)c1 [I-739, 2-chloro-N-(3-(N-methyl-N-phenylsulfamoyl)phenyl)quinoline-4-carboxamide] | 52
21 | CC1Cc2ccccc2N1S(=O)(=O)c1cccc(C(=O)N2CCCc3ccccc32)c1 (centres unmarked) [I-465, (3,4-dihydroquinolin-1(2H)-yl)(3-((2-methylindolin-1-yl)sulfonyl)phenyl)methanone] | 59
22 | COc1ccccc1NC(=O)c1ccc(NS(=O)(=O)c2ccc(Cl)c(C(F)(F)F)c2)cc1 [I-915, 4-((4-chloro-3-(trifluoromethyl)phenyl)sulfonamido)-N-(2-methoxyphenyl)benzamide] | 59
23 | COc1ccc(C(C)(C)C)cc1NC(=O)c1ccc(S(=O)(=O)N(C)c2ccccc2OC)cc1 [I-873, N-(5-(tert-butyl)-2-methoxyphenyl)-4-(N-(2-methoxyphenyl)-N-methylsulfamoyl)benzamide] | 56
24 | CS(=O)(=O)c1ccc2c(c1)N(C(=O)c1cccc(S(=O)(=O)N3CCc4ccccc43)c1)CCC2 [I-603, (3-(indolin-1-ylsulfonyl)phenyl)(7-(methylsulfonyl)-3,4-dihydroquinolin-1(2H)-yl)methanone] | 25
25 | Cc1ccc(NC(=O)c2cccc(S(=O)(=O)Nc3ccccc3F)c2)c(F)c1 [I-613, N-(2-fluoro-4-methylphenyl)-3-(N-(2-fluorophenyl)sulfamoyl)benzamide] | 3
26 | O=C(Nc1ccccn1)c1cccc(NS(=O)(=O)c2ccc(Br)cc2)c1 [I-627, 3-((4-bromophenyl)sulfonamido)-N-(pyridin-2-yl)benzamide] | 71
27 | O=C(Nc1ccc(Cl)c([N+](=O)[O-])c1)c1cccc(S(=O)(=O)Nc2cc(C(F)(F)F)ccc2Cl)c1 [I-241, N-(4-chloro-3-nitrophenyl)-3-(N-(2-chloro-5-(trifluoromethyl)phenyl)sulfamoyl)benzamide] | 71
28 | COc1ccc(NC(=O)c2ccc(S(=O)(=O)Nc3ccccc3)cc2)cc1 [I-402, N-(4-methoxyphenyl)-4-(N-phenylsulfamoyl)benzamide] | 40
29 | CC1Cc2ccccc2N1S(=O)(=O)c1cccc(C(=O)Nc2ccc(Oc3ccccc3)cc2)c1 (centres unmarked) [I-483, 3-((2-methylindolin-1-yl)sulfonyl)-N-(4-phenoxyphenyl)benzamide] | 58
